In patent publication US12234211B2, “Cycloolefin substituted heteroaromatic compounds and their use” (HUTCHISON MEDIPHARMA LIMITED, priority 2017, dated 2025):

biological target: T1, IDH2-R140Q (Homo sapiens, UniProt P48735, R140Q); assay: Fluorescent determination of IDH2-R140Q cell activity (2-HG in U87MGR140Q cells); format: cell-based; details: 72 hours incubation, read-out: IC50 (2-HG inhibition)
T1 construct: expressed in transfected cells
T1 sequence (P48735 40-452 R140Q): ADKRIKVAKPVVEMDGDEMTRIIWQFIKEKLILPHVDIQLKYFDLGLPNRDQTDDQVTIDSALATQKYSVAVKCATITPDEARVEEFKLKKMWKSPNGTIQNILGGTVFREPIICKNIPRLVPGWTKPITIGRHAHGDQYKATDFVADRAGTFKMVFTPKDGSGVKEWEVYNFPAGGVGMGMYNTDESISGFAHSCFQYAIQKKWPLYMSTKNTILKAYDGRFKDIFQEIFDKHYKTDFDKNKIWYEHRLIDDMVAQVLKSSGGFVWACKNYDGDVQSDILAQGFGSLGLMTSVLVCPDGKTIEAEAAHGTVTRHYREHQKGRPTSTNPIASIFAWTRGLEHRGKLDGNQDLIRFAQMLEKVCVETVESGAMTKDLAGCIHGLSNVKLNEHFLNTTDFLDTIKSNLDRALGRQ
Method: Enzyme reaction solution: 1 mM nicotinamide adenine dinucleotide (NAD), 0.6 ng/μL D-2-hydroxyglutarate dehydrogenase (D2HGDH), 0.8 U/mL lipoamidase dehydrogenase (Diaphorase) and 60 μM Resazurin in 40 mM Tris.HCl pH 8.8 assay buffer.
Standard curve stock solution: The standard of 2-HG sodium salt was serially diluted in serum-free MEM medium to make a standard curve stock solution.
100 μL of U87MGR140Q cells were seeded at a density of 6×10^4/mL per well in a 96-well plate a.
From each well of 96-well plate a, 50 μL of the culture supernatant was transferred to the corresponding well of 96-well plate b; at the same time, 50 μL of standard curve stocking solution was added to other wells of 96-well plate b. Then 10 μl of 360 mM hydrochloric acid was added to all the wells. After shaking and mixing, the plate was placed on ice for 10 minutes, and then 10 μl of 420 mM Tris-base was added. After shaking and mixing, the plate was placed on ice for additional 5 minutes. Then the plate was centrifuged at 2500 rpm for 10 minutes.
After centrifuging, from each well of 96-well plate b, 20 μL of the supernatant was transferred to 96-well plate c. An additional 80 μL of the enzyme reaction solution was added to each well and incubated at 25° C. for 90 minutes.
A standard curve of the fluorescence value vs. the corresponding 2-HG concentration was made, and the 2-HG concentration corresponding to each concentration point of the compound was calculated, then the inhibition ratio was calculated, and the data was analyzed using XLfit5 (ID Business Solutions Limited) software to obtain the IC50 value.
The inhibition ratio was calculated as follows: Inhibition Ratio (IH %)=(1-2-HG concentration of test compound treated cells/2-HG concentration of control cells)×100%.

Row | Structure (SMILES) | IC50 [nM]
1 | [2H]C1(O)CCCC(c2nc(NC(C)C)nc(N[C@H](C)C(F)(F)F)n2)=C1F (mixture of isomers) [Compound 23] | 192
2 | [2H]C1(O)CCCC(c2nc(N[C@H](C)C(F)(F)F)nc(NC([2H])(C([2H])([2H])[2H])C([2H])([2H])[2H])n2)=C1F (mixture of isomers) [Compound 29] | 177
3 | [2H]C1(O)CCCC(c2nc(N[C@@H](C)C(F)(F)F)nc(NC([2H])(C([2H])([2H])[2H])C([2H])([2H])[2H])n2)=C1F (mixture of isomers) [Compound 30] | 228
4 | CC(C)Nc1nc(N[C@H](C)C(F)(F)F)nc(C2=CC(F)CCC2)n1 (mixture of isomers) [Compound 36] | 181
5 | CC(C)Nc1nc(N[C@H](C)C(F)(F)F)nc(C2=CCCC(F)C2)n1 (mixture of isomers) [Compound 37] | 1910
6 | CC(C)Nc1nc(N[C@H](C)C(F)(F)F)nc(C2=CCC(F)CC2)n1 (mixture of isomers) [Compound 38] | 1620
7 | [2H]C1([2H])CCC(c2nc(NC3CC(F)(F)C3)nc(N[C@@H](C)C(F)(F)F)n2)=C(F)C1([2H])O (mixture of isomers) [Compound 90] | 65
8 | CC(C)Nc1nc(N[C@H](C)C(F)(F)F)nc(C2=CCCC(O)C2)n1 (mixture of isomers) [Compound 144, 3-(4-(Isopropylamino)-6-(((R)-1,1,1-trifluoropropan-2-yl)amino)-1,3,5-triazin-2-yl)cyclohex-3-en-1-ol] | 2750
9 | C[C@@H](Nc1nc(NCC(F)(F)F)nc(C2=CC(O)CCC2)n1)C(F)(F)F (mixture of isomers) [Compound 154] | 202
10 | C[C@@H](Nc1nc(NC2(C)CC2)nc(C2=CC(O)CCC2)n1)C(F)(F)F (mixture of isomers) [Compound 156] | 657
11 | C[C@@H](Nc1nc(NC2CC3(C2)CC(F)(F)C3)nc(C2=C(F)C(O)CCC2)n1)C(F)(F)F (mixture of isomers) [Compound 160] | 180
12 | C[C@@H](Nc1nc(NC2CC2)nc(C2=C(F)C(O)CCC2)n1)C(F)(F)F (mixture of isomers) [Compound 162] | 177
13 | CC[C@@H](C)Nc1nc(N[C@H](C)C(F)(F)F)nc(C2=C(F)C(O)CCC2)n1 (mixture of isomers) [Compound 164] | 176
14 | CC[C@H](C)Nc1nc(N[C@H](C)C(F)(F)F)nc(C2=C(F)C(O)CCC2)n1 (mixture of isomers) [Compound 165] | 198
15 | C[C@@H](Nc1nc(NOC(C)(C)C)nc(C2=C(F)C(O)CCC2)n1)C(F)(F)F (mixture of isomers) [Compound 172] | 344
16 | C[C@@H](Nc1nc(NCC(F)(F)F)nc(C2=C(F)C(O)C(F)(F)CC2)n1)C(F)(F)F (mixture of isomers) [Compound 208] | 102
17 | CCCNc1nc(N[C@H](C)C(F)(F)F)nc(C2=C(F)C(O)C(F)(F)CC2)n1 (mixture of isomers) [Compound 248] | 93
18 | C[C@@H](Nc1nc(NC2CCCC2)nc(C2=C(F)C(O)CCC2)n1)C(F)(F)F (mixture of isomers) [Compound 10] | 113
19 | CC(C)CNc1nc(N[C@H](C)C(F)(F)F)nc(C2=C(F)C(O)CCC2)n1 (mixture of isomers) [Compound 12] | 199
20 | C[C@@H](Nc1nc(N[C@@H]2C[C@@H]2F)nc(C2=C(F)C(O)CCC2)n1)C(F)(F)F (mixture of isomers) [Compound 16] | 326
21 | CC(C)Nc1nc(N[C@H](C)C(F)(F)F)nc(C2=C(Cl)C(O)CCC2)n1 (mixture of isomers) [Compound 17] | 1620
22 | CC(C)Nc1nc(N[C@H](C)C(F)(F)F)nc(C2=C(F)C(F)CCC2)n1 (mixture of isomers) [Compound 35, 6-(2,3-Difluorocyclohex-1-en-1-yl)-N^2-isopropyl-N^4-((R)-1,1,1-trifluoropropan-2-yl)-1,3,5-triazine-2,4-diamine] | 591
23 | C[C@@H](Nc1nc(NC2CC23CC3)nc(C2=C(F)C(O)CCC2)n1)C(F)(F)F (mixture of isomers) [Compound 42] | 152
24 | [2H]C1([2H])CCC(c2nc(NC(C)C)nc(NC3CC(F)(F)C3)n2)=C(F)C1([2H])O (racemic) [Compound 92] | 143
25 | C[C@@H](Nc1nc(NC2CC2)nc(C2=CC(O)CCC2)n1)C(F)(F)F (mixture of isomers) [Compound 129] | 171
26 | C[C@@H](Nc1nc(NCC(C)(C)O)nc(C2=CC(O)CCC2)n1)C(F)(F)F (mixture of isomers) [Compound 131] | 2800

Row | Structure (SMILES) | IC50 [nM]
27 | CCCNc1nc(N[C@H](C)C(F)(F)F)nc(C2=CC(O)CCC2)n1 (mixture of isomers) [Compound 133] | 174
28 | CCNc1nc(N[C@H](C)C(F)(F)F)nc(C2=CC(O)CCC2)n1 (mixture of isomers) [Compound 135] | 336
29 | CC(C)C(=O)Nc1nc(N[C@H](C)C(F)(F)F)nc(C2=CC(O)CCC2)n1 (mixture of isomers) [Compound 137] | 1540
30 | COC1C=C(c2nc(N[C@H](C)C(F)(F)F)nc(N[C@H](C)C(F)(F)F)n2)CCC1 (mixture of isomers) [Compound 140, 6-(3-Methoxycyclohex-1-en-1-yl)-N^2,N^4-bis((R)-1,1,1-trifluoropropan-2-yl)-1,3,5-triazine-2,4-diamine] | 2390
31 | C[C@@H](Nc1nc(NC2CCC(F)(F)C2)nc(C2=CC(O)CCC2)n1)C(F)(F)F (mixture of isomers) [Compound 176] | 612
32 | CC(CO)Nc1nc(N[C@H](C)C(F)(F)F)nc(C2=CC(O)CCC2)n1 (mixture of isomers) [Compound 184] | 3780
33 | [2H]C1(O)CCCCC(c2nc(NC3CC(F)(F)C3)nc(NC3CC(F)(F)C3)n2)=C1F (stereo not shown) [Compound 22] | 336
34 | CC(C)Nc1nc(NC(C)C)nc(C2=C(F)C(O)CCC2)n1 (stereo not shown) [Compound 25] | 665
35 | OC1CCCC(c2nc(NC3CC3)nc(NC3CC(F)(F)C3)n2)=C1F (stereo not shown) [Compound 27] | 148
36 | CC(C)Nc1nc(NC2CC(F)(F)C2)nc(C2=C(F)C(O)CCC2)n1 (stereo not shown) [Compound 28] | 123
37 | C[C@H](CF)Nc1nc(NC2CC(F)(F)C2)nc(C2=C(F)C(O)CCC2)n1 (stereo partly shown) [Compound 43] | 328
38 | C[C@@H](Nc1nc(Nc2ccn3ccnc3c2)nc(C2=C(F)C(O)CCC2)n1)C(F)(F)F (stereo partly shown) [Compound 44] | 3150
39 | OC1CCCC(c2nc(NC3CC3)nc(NC3CC(F)(F)C3)n2)=C1F (stereo not shown) [Compound 49] | 210
40 | CC1CC1Nc1nc(NC2CC(F)(F)C2)nc(C2=C(F)C(O)CCC2)n1 (stereo not shown) [Compound 50] | 72
41 | [2H]C([2H])([2H])C([2H])(Nc1nc(N[C@@H](C)C(F)(F)F)nc(C2=C(F)C(O)CCC2)n1)C([2H])([2H])[2H] (stereo partly shown) [Compound 53] | 131
42 | [2H]C([2H])([2H])C([2H])(Nc1nc(NC2CC(F)(F)C2)nc(C2=C(F)C(O)CCC2)n1)C([2H])([2H])[2H] (stereo not shown) [Compound 55] | 103
43 | [2H]C1([2H])CCC(c2nc(NC(C)C)nc(NC3CC(F)(F)C3)n2)=C(F)C1O (stereo not shown) [Compound 56] | 93
44 | CC(C)Nc1nc(Nc2cnn(C)c2)nc(C2=C(F)C(O)CCC2)n1 (stereo not shown) [Compound 57] | 2180
45 | [2H]C([2H])([2H])Nc1nc(Nc2ccnc(C(F)(F)F)c2)nc(C2=C(F)C(O)CCC2)n1 (stereo not shown) [Compound 58] | 169
46 | CC(C)Nc1nc(Nc2ccn3nccc3c2)nc(C2=C(F)C(O)CCC2)n1 (stereo not shown) [Compound 59] | 221
47 | C[C@H](Nc1nc(N[C@@H](C)C(F)(F)F)nc(C2=C(F)C(O)CCC2)n1)C(F)(F)F (stereo partly shown) [Compound 69] | 173
48 | CC(C)(O)CNc1nc(Nc2ccnc(C(F)(F)F)c2)nc(C2=C(F)C(O)CCC2)n1 (stereo not shown) [Compound 70] | 112
49 | OC1CCCC(c2nc(Nc3ccc(F)cc3)nc(Nc3ccnc(C(F)(F)F)c3)n2)=C1F (stereo not shown) [Compound 72] | 42
50 | [2H]C1([2H])CCC(c2nc(Nc3ccnc(C(F)(F)F)c3)nc(NC([2H])(C([2H])([2H])[2H])C([2H])([2H])[2H])n2)=C(F)C1O (stereo not shown) [Compound 86] | 21
51 | CC(C)Nc1nc(N[C@H](C)C(F)(F)F)nc(C2=CC(=O)CCC2)n1 [Compound 122, (R)-3-(4-(isopropylamino)-6-((1,1,1-trifluoropropan-2-yl)amino)-1,3,5-triazin-2-yl)cyclohex-2-en-1-one] | 1340
52 | CC(C)Nc1nc(N[C@H](C)C(F)(F)F)nc(C2=CC(F)(F)CCC2)n1 [Compound 138, (R)-6-(3,3-difluorocyclohex-1-en-1-yl)-N^2-isopropyl-N^4-(1,1,1-trifluoropropan-2-yl)-1,3,5-triazine-2,4-diamine] | 504
